# Legend:
# [1] = tested on: primary human bronchial smooth cells (BSMC); test: QCM Chemotaxis cell migration assay of BSMCs cocultured with DBP-treated BEAS-2B cells; type: cell-based; settings: 5 μM ginger compound, then coculture with DBP-BEAS for 24 hours; groups A1-7 to A1-10, FIG. 6
# Procedure: (§1) With reference to FIG. 5, the plasticizers-treated bronchial smooth muscle cells are prepared by processing two steps. In the first step, a plasticizer-treated bronchial epithelial cell line is obtained by harvesting a human bronchial epithelial cell line in a chemical plasticizer at 37±1° C. for 6 hours, with each 100 mm incubating plate receiving 2×10^6 cells and with the treatment of the chemical plasticizer to induce the excretion of proinflammatory cytokines in the human bronchial epithelial cell line, such as IL-8 and RANTES, followed by removing the chemical plasticizer from the human bronchial epithelial cell line, reincubating the human bronchial epithelial cell lines in a culturing medium for 24 hours, and finally collecting the supernatants to obtain plasticizers-treated bronchial epithelial cells of the present invention. In specification, the chemical plasticizer of the present invention can be selected from a group of butylbenzyl phthalate (BBP), bis-(2-ethylhexyl) phthalate (BEHP), dibutyl phthalate (DBP) and diethyl phthalate (DEP), and with the concentration of 0.1 to 5.0 μM.
# (§2) In the second step, the plasticizer-treated bronchial epithelial cells obtained from the first step are coincubated with a human bronchial smooth muscle cell line to obtain the plasticizer-treated bronchial smooth muscle cells of the present invention. […]
# With reference of TABLE 1, the BSMCs are previously seeded into a migration chamber for 24 hours, with the BSMCs placing on the surface of the migration chamber, and randomly assigned into 10 groups including A1-1 to A1-10 to carry out various treatments between 10 groups. […] After the treatments, the BSMCs of the groups A1-1 to A1-10 are analyzed by a QCM Chemotaxis […] cell migration assay system (Chemicon, Temecula, Calif.; Millipore Corp, Bedford, Mass.), with the BSMCs in each group being stained, lysed and finally quantified on a microplate at 560 nm. […]
# [2] = tested on: primary human bronchial smooth cells (BSMC); test: WST-1 cell proliferation assay of BSMCs cocultured with DBP-treated BEAS-2B cells; type: cell-based; settings: 5 μM ginger compound for 1 hour, then coculture with DBP-BEAS for 72 hours; groups A2-7 to A2-10, FIG. 7
# Procedure: as §1, §2
# Additionally, with reference to TABLE 2, the BSMCs are placed and preincubated in 96-well culture plates for 24 hours, followed by randomly assigning into 10 groups including A2-1 to A2-10 to carry out various treatments between 10 groups. […] After the various treatments of each group, the proliferation degrees of BSMCs in each group are determined by Premixed WST-1 Cell Proliferation Reagent (Clontech Laboratories Inc., Mountain View, Calif.).
Structure (SMILES),plasticizer-induced airway remodeling: migration of BSMCs [1],plasticizer-induced airway remodeling: proliferation of BSMCs [2]
CCCCC[C@H](O)CC(=O)CCc1ccc(O)c(OC)c1 [[6]-gingerol],sufficient in suppressing,sufficient in suppressing
CCCCC/C=C/C(=O)CCc1ccc(O)c(OC)c1 [[6]-shogaol],sufficient in suppressing,sufficient in suppressing
CCCCCCCCC[C@H](O)CC(=O)CCc1ccc(O)c(OC)c1 [[10]-gingerol],sufficient in suppressing,sufficient in suppressing
